Data from patent US6583299B1, “α-amino-β-sulfonyl hydroxamic acid compounds” (priority 1999, dated 2003).
pIC50: −log10 of the molar value. Values joined by “and” are separate entries in the source; they are usually repeats but may differ in a detail not shown here. Equal values may be shown once. Read-outs that look alike come from different tables or passages of the source.

Tests used:
Experiment in all cases: In vitro metalloprotease inhibition, fluorogenic MCA peptide substrate
Format in all cases: biochemical
[1] = molecular target: T1, MMP-2 (Homo sapiens, UniProt P08253); conditions: room temperature, pH 7.5
T1 sequence (P08253 110-660): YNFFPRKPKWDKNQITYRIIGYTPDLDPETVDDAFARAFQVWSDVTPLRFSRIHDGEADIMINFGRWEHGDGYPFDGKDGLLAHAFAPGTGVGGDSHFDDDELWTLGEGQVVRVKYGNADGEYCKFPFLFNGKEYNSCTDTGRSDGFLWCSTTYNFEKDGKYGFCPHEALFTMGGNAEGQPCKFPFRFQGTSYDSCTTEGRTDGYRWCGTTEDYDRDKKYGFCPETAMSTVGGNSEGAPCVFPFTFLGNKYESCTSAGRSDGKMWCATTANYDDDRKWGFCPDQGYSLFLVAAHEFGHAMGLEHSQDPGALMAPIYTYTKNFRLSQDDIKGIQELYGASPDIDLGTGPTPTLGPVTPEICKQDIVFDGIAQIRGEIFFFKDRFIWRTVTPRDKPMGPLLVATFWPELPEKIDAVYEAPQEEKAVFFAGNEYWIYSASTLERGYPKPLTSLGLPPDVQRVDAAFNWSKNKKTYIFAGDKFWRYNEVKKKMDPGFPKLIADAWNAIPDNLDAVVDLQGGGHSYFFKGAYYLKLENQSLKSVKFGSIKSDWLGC

[2] = molecular target: T2, MMP-13 (Homo sapiens, UniProt P45452); conditions: APMA-activated, room temperature, pH 7.5
T2 construct: made in house; host or cells: baculovirus / insect cells

[3] = molecular target: T3, MMP-1 (Homo sapiens, UniProt P03956); conditions: recombinant human enzyme, APMA-activated, room temperature, pH 7.5
T3 construct: host or cells: transfected HT-1080 cells
T3 sequence (P03956 100-469): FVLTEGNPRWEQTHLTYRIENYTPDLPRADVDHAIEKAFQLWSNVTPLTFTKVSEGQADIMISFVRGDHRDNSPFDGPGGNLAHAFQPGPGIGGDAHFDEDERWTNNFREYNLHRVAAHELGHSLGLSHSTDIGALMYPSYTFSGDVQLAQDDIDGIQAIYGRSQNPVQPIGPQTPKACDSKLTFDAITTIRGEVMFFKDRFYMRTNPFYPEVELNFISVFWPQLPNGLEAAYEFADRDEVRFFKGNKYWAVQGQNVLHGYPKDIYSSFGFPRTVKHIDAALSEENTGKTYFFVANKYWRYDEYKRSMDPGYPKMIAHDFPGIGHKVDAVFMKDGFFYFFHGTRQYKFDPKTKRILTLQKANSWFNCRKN

[4] = recombinant human enzyme, read-out: MMP-13 IC50
[5] = MMP-13 IC50, recombinant human enzyme

| Structure (SMILES) | pIC50 [1] | pIC50 [2, 4] | pIC50 [3] | pIC50 [2, 5] |
| --- | --- | --- | --- | --- |
| Cc1ccc(S(=O)(=O)NC(CS(=O)(=O)c2ccc(Oc3ccccc3)cc2)C(=O)NO)cc1 (centres unmarked) [Example 12c] | > 10.00 | 9.22 | 6.40 |  |
| CC(=O)NC(CS(=O)(=O)c1ccc(Sc2ccccc2)cc1)C(=O)NO (centres unmarked) [Example 15b, 2-(Acetylamino)-N-hydroxy-3-[[4-(phenylthio)phenyl]sulfonyl]propanamide] | 8.66 | 8.23 | < 5.00 |  |
| O=C(NC(CS(=O)(=O)c1ccc(Sc2ccccc2)cc1)C(=O)NO)c1ccncc1 (centres unmarked) [Example 28] | 8.26 | 7.89 | < 5.00 |  |
| O=C(NC(CS(=O)(=O)c1ccc(Sc2ccccc2)cc1)C(=O)NO)c1cccnc1 (centres unmarked) [Example 29] |  | 8.15 | < 5.00 |  |
| CC(=O)N[C@@H](CS(=O)(=O)c1ccc(Sc2ccccc2)cc1)C(=O)NO [Example 30] | 9.30 | 8.54 |  |  |
| O=C(NC(CS(=O)(=O)c1ccc(Sc2ccccc2)cc1)C(=O)NO)c1ccccc1 (centres unmarked) [Example 34] |  | 8.30 | < 5.00 |  |
| O=C(NC(CS(=O)(=O)c1ccc(Sc2ccccc2)cc1)C(=O)NO)c1cccc2ccccc12 (centres unmarked) [Example 36] |  | 8.60 | < 5.00 |  |
| CC(N)(CS(=O)(=O)c1ccc(Oc2ccccc2)cc1)C(=O)NO (centres unmarked) [Example 38] |  |  | 6.77 | 9.30 |
| CC(N)(CS(=O)(=O)c1ccc(Oc2ccccc2)cc1)C(=O)NO (centres unmarked) [Example 39] |  |  | 6.94 and 6.65 | 9.52 and 8.96 |
| CN[C@@H](CS(=O)(=O)c1ccc(Oc2ccccc2)cc1)C(=O)NO [Example 41] | 9.52 and 9.30 | 9.40 and 9.00 | 6.36 and 6.17 |  |
| O=C(N[C@@H](CS(=O)(=O)c1ccc(Oc2ccccc2)cc1)C(=O)NO)c1ccncc1 [Example 44] | 9.52 | 9.10 | 6.05 |  |
| O=C(N[C@@H](CS(=O)(=O)c1ccc(Oc2ccccc2)cc1)C(=O)NO)c1ccncc1 [Example 46] | 9.52 | 8.96 | 5.88 |  |
| CN(C(=O)Cc1ccncc1)[C@H](CS(=O)(=O)c1ccc(Oc2ccccc2)cc1)C(=O)NO [Example 47] | 9.22 | 7.34 | 6.59 |  |
| CCN(CC)c1ccc(C(=O)N[C@@H](CS(=O)(=O)c2ccc(Oc3ccccc3)cc2)C(=O)NO)cc1 [Example 53] | 9.52 | 8.68 | 5.09 |  |
| CCNC(C)(CS(=O)(=O)c1ccc(Oc2ccccc2)cc1)C(=O)NO (centres unmarked) [Example 55] |  | 8.80 | 5.80 |  |
| CC(N)(CS(=O)(=O)c1ccc(Sc2ccccc2)cc1)C(=O)NO (centres unmarked) [Example 58] |  | 8.62 | 5.36 |  |
| CC(=O)N1CCC(C(=O)NC(CS(=O)(=O)c2ccc(Oc3ccccc3)cc2)C(=O)NO)CC1 (centres unmarked) [Example 59] | 9.40 | 9.10 | 6.24 |  |
| N[C@H](CNO)CS(=O)(=O)c1ccc(Oc2ccccc2)cc1 [Example 60] | 9.52 | 9.40 | 6.36 |  |
| CC(N)(CS(=O)(=O)c1ccc(NC(=O)c2ccccc2)cc1)C(=O)NO (centres unmarked) [Example 61] | 8.96 | 7.22 | < 5.00 |  |
| CC(C)(C)OC(=O)NC(C)(CS(=O)(=O)c1ccc(NC(=O)c2ccccc2)cc1)C(=O)NO (centres unmarked) [Example 62] | 7.62 | 5.92 | 7.14 |  |
| CN(C(=O)OC(C)(C)C)C(C)(CS(=O)(=O)c1ccc(NC(=O)c2ccccc2)cc1)C(=O)NO (centres unmarked) [Example 63] | 9.00 | 7.67 | 5.52 |  |
| CNC(CS(=O)(=O)c1ccc(NC(=O)c2ccccc2)cc1)C(=O)NO (centres unmarked) [Example 64] | 9.40 | 8.09 | 5.15 |  |
| CC(CS(=O)(=O)c1ccc(Oc2ccccc2)cc1)(NCCc1ccccc1)C(=O)NO (centres unmarked) [Example 67] |  | 8.62 | 5.62 |  |
| C#CCNC(C)(CS(=O)(=O)c1ccc(Oc2ccccc2)cc1)C(=O)NO (centres unmarked) [Example 69] |  | 9.22 | 6.15 |  |
| NC(CS(=O)(=O)c1ccc(Oc2ccccc2)cc1)(C(=O)NO)c1ccccc1 (centres unmarked) [Example 70] |  | 9.40 | 6.89 |  |

More lines, now with the values ahead:

| pIC50 [1] | pIC50 [2, 4] | pIC50 [3] | pIC50 [2, 5] | Structure (SMILES) |
| --- | --- | --- | --- | --- |
| 9.10 | 9.40 | 5.52 |  | COc1ccc(CC(=O)NC(CS(=O)(=O)c2ccc(Sc3ccccc3)cc2)C(=O)NO)c(OC)c1 (centres unmarked) [Example 31] |
|  | 9.40 | 5.10 |  | O=C(N[C@@H](CS(=O)(=O)c1ccc(Sc2ccccc2)cc1)C(=O)NO)OCc1ccccc1 [Example 32] |
| 9.70 | 9.52 | 6.30 |  | CC(C)(C)OC(=O)N[C@@H](CS(=O)(=O)c1ccc(Oc2ccccc2)cc1)C(=O)NO [Example 33] |
|  | 9.70 | 5.52 |  | O=C(NC(CS(=O)(=O)c1ccc(Sc2ccccc2)cc1)C(=O)NO)c1ccccc1-c1ccccc1 (centres unmarked) [Example 35] |
| 9.60 | 9.40 | 6.46 |  | COc1cccc(OC)c1C(=O)N[C@@H](CS(=O)(=O)c1ccc(Oc2ccccc2)cc1)C(=O)NO [Example 37] |
| 9.52 | 9.52 | 5.80 |  | CN(C(=O)OC(C)(C)C)[C@H](CS(=O)(=O)c1ccc(Oc2ccccc2)cc1)C(=O)NO [Example 40] |
| 9.70 | 9.70 | 7.05 |  | CC(=O)N(C)[C@@H](CS(=O)(=O)c1ccc(Oc2ccccc2)cc1)C(=O)NO [Example 43] |
| > 10.00 | 9.70 | 6.32 |  | CN(Cc1ccccc1)[C@H](CS(=O)(=O)c1ccc(Oc2ccccc2)cc1)C(=O)NO [Example 48] |
| 9.52 | 9.52 | 6.50 |  | O=C(N[C@@H](CS(=O)(=O)c1ccc(Oc2ccccc2)cc1)C(=O)NO)c1ccnc2ccccc12 [Example 50] |
| 9.52 | 9.40 | 6.53 |  | O=C(N[C@@H](CS(=O)(=O)c1ccc(Oc2ccccc2)cc1)C(=O)NO)c1ccnc2ccccc12 [Example 51] |
| 9.70 | 9.52 | 6.46 |  | O=C(NO)[C@H](CS(=O)(=O)c1ccc(Oc2ccccc2)cc1)N1CCCCC1 [Example 54] |
